According to US20250296959A1, “B7-H3 TARGETING PEPTIDES AND CONSTRUCTS THEREOF” (Mariana Oncology Inc., priority 2024, published 2025):
Starred links: 1 amine or outer side, 2 acyl side, 3 side chain; linkers in the order of their positions; H or OH if unused. Positions of bridges follow the written chain, without caps; N, C: chain ends. Non-standard residues stand in square brackets, D forms with d. Residues, ends and D or L forms follow the SMILES beside them. Groups on a side chain read outwards from the residue. *: point of attachment. Ala(piperidin-4-yl) = O=C([C@H](CC1CCN([*:3])CC1)N[*:1])[*:2]; DOTA = O=C(O)CN1CCN(CC(=O)O)CCN(CC(=O)*)CCN(CC(=O)O)CC1; Phe(4-NHCONH2) = NC(=O)Nc1ccc(C[C@H](N)C(=O)O)cc1; Trp(5-Cl) = N[C@@H](Cc1c[nH]c2ccc(Cl)cc12)C(=O)O; Phe(4-COOH) = N[C@@H](Cc1ccc(C(=O)O)cc1)C(=O)O; Trp(5-F) = N[C@@H](Cc1c[nH]c2ccc(F)cc12)C(=O)O; X1 = C[C@@H](c1ccccc1)[C@H](N[*:1])C(=O)[*:2]; Trp(2-Me) = Cc1[nH]c2ccccc2c1C[C@H](N)C(=O)O; Phe(3-F) = N[C@@H](Cc1cccc(F)c1)C(=O)O; γGlu = O=C(O)[C@H](CCC(=O)[*:2])N[*:1]; 1Nal = N[C@@H](Cc1cccc2ccccc12)C(=O)O; Ala(4-THP) = N[C@@H](CC1CCOCC1)C(=O)O; AEF = NCCOc1ccc(C[C@H](N)C(=O)O)cc1; Gly(4-THP) = N[C@H](C(=O)O)C1CCOCC1; Val(3-OH) = CC(C)(O)[C@H](N)C(=O)O; pGlu = O=C1CC[C@@H](C(=O)O)N1; Chg = N[C@H](C(=O)O)C1CCCCC1; Tle = CC(C)(C)[C@H](N)C(=O)O; hLeu = CC(C)CC[C@H](N)C(=O)O; αMeK = C[C@](N)(CCCCN)C(=O)O; NMeS = CN[C@@H](CO)C(=O)O; PEG1 = NCCOCCC(=O)O

biological target: T1, human 4lg B7-H3 (Homo sapiens, UniProt Q5ZPR3); test: Affinity determination by surface plasmon resonance (SPR) to 4Ig B7-H3; details: SPR KD—25° C., 4Ig B7-H3; 25° C. flow cell temperature
T1 sequence (Q5ZPR3 29-534): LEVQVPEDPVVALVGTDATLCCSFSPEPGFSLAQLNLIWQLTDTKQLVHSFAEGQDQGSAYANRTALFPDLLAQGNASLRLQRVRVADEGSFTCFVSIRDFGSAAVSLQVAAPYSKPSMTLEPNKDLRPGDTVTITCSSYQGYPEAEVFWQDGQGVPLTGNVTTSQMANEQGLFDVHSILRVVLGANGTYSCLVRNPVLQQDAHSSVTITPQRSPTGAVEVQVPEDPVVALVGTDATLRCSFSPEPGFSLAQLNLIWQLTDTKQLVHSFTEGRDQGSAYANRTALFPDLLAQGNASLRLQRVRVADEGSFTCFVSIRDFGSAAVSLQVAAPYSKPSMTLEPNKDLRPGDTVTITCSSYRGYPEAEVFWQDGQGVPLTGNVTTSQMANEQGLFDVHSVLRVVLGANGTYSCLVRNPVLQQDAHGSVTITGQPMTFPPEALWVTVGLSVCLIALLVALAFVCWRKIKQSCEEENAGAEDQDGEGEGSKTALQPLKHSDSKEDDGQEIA

Row | SMILES | Kd [nM]
1 | CC(=O)N[C@@H](CCC(C)C)C(=O)N[C@@H](Cc1ccc(O)cc1)C(=O)N[C@H]1CSSC[C@@H](C(=O)N[C@@H](Cc2c[nH]c3ccc(F)cc23)C(=O)N[C@@H](Cc2ccc(C(=O)O)cc2)C(=O)N[C@H](C(=O)N[C@H](CCCCNC(=O)CN2CCN(CC(=O)O)CCN(CC(=O)O)CCN(CC(=O)O)CC2)C(N)=O)[C@@H](C)O)NC(=O)[C@H](Cc2ccc(O)cc2)NC(=O)[C@H](C(C)C)NC(=O)[C@H](CC(=O)O)NC(=O)[C@H](Cc2ccc(O)cc2)NC(=O)[C@H](CCCCN)NC(=O)CNC(=O)[C@H](C(C)C)NC1=O [compound 166, Ac-hLeu-Y-C-V-G-K-Y-D-V-Y-C-5FW-4COOHPhe-Thr-dLys(DOTA)-CONH2] (Ac-[hLeu]YCVGKYDVYC[Trp(5-F)][Phe(4-COOH)]T[dK](DOTA)-NH2; disulfide 3-11) | 10 to 100
2 | CC(=O)N[C@@H](CCC(C)C)C(=O)N[C@@H](Cc1ccc(O)cc1)C(=O)N[C@H]1CSSC[C@@H](C(=O)N[C@@H](Cc2c[nH]c3ccc(F)cc23)C(=O)N[C@@H](Cc2cccc(F)c2)C(=O)N[C@H](C(=O)N[C@H](CCCCNC(=O)CN2CCN(CC(=O)O)CCN(CC(=O)O)CCN(CC(=O)O)CC2)C(N)=O)[C@@H](C)O)NC(=O)[C@H](Cc2ccc(O)cc2)NC(=O)[C@H](C(C)C)NC(=O)[C@H](CC(=O)O)NC(=O)[C@H](Cc2ccc(O)cc2)NC(=O)[C@H](CCCCN)NC(=O)CNC(=O)[C@H](C(C)C)NC1=O [compound 173, Ac-hLeu-Y-C-V-G-K-Y-D-V-Y-C-5FW-3FPhe-Thr-dLys(DOTA)-CONH2] (Ac-[hLeu]YCVGKYDVYC[Trp(5-F)][Phe(3-F)]T[dK](DOTA)-NH2; disulfide 3-11) | < 1
3 | CC(=O)N[C@@H](CCC(C)C)C(=O)N[C@@H](Cc1ccc(O)cc1)C(=O)N[C@H]1CSSC[C@@H](C(=O)N[C@@H](Cc2c[nH]c3ccccc23)C(=O)N[C@@H](Cc2ccccc2)C(=O)N[C@H](C(=O)N[C@H](CCCCNC(=O)CN2CCN(CC(=O)O)CCN(CC(=O)O)CCN(CC(=O)O)CC2)C(N)=O)[C@@H](C)O)NC(=O)[C@H](Cc2ccc(O)cc2)NC(=O)[C@H](C2CCCCC2)NC(=O)[C@H](CC(=O)O)NC(=O)[C@H](Cc2ccc(O)cc2)NC(=O)[C@H](CCCCN)NC(=O)CNC(=O)[C@H](C(C)(C)C)NC1=O [compound 216, Ac-hLeu-Y-C-Tbg-G-K-Y-D-ChG-Y-C-W-F-Thr-dLys(DOTA)-CONH2] (Ac-[hLeu]YC[Tle]GKYD[Chg]YCWFT[dK](DOTA)-NH2; disulfide 3-11) | < 1
4 | CC(=O)N[C@@H](CCC(C)C)C(=O)N[C@@H](Cc1ccc(O)cc1)C(=O)N[C@H]1CSSC[C@@H](C(=O)N[C@@H](Cc2c[nH]c3ccc(F)cc23)C(=O)N[C@@H](Cc2ccccc2)C(=O)N[C@H](C(=O)N[C@H](CCCCNC(=O)CN2CCN(CC(=O)O)CCN(CC(=O)O)CCN(CC(=O)O)CC2)C(=O)O)[C@@H](C)O)NC(=O)[C@H](Cc2ccc(O)cc2)NC(=O)[C@H](C(C)C)NC(=O)[C@H](CC(=O)O)NC(=O)[C@H](CC2CCOCC2)NC(=O)[C@](C)(CCCCN)NC(=O)CNC(=O)[C@H](C(C)(C)C)NC1=O [compound 353, Ac-hLeu-Y-C-Tbg-G-aMeLys-ThpA-D-V-Y-C-5FW-F-Thr-dLys(DOTA)-COOH] (Ac-[hLeu]YC[Tle]G[αMeK][Ala(4-THP)]DVYC[Trp(5-F)]FT[dK](DOTA)-OH; disulfide 3-11) | 100 to 300
5 | CC(=O)N[C@@H](CCC(C)C)C(=O)N[C@H](C(=O)N[C@H]1CSSC[C@@H](C(=O)N[C@@H](Cc2c[nH]c3ccc(F)cc23)C(=O)N[C@@H](Cc2ccccc2)C(=O)N(C)[C@@H](CO)C(=O)N[C@H](CCCCNC(=O)CN2CCN(CC(=O)O)CCN(CC(=O)O)CCN(CC(=O)O)CC2)C(N)=O)NC(=O)[C@H](Cc2ccc(O)cc2)NC(=O)[C@H](C(C)C)NC(=O)[C@H](CC(=O)O)NC(=O)[C@H](Cc2ccc(O)cc2)NC(=O)[C@H](CC2CCNCC2)NC(=O)CNC(=O)[C@H](C(C)C)NC1=O)C1CCOCC1 [compound 213, Ac-hLeu-ThpG-C-V-G-PipAla-Y-D-V-Y-C-5FW-F-NMeSer-dLys(DOTA)-CONH2] (Ac-[hLeu][Gly(4-THP)]CVG[Ala(piperidin-4-yl)]YDVYC[Trp(5-F)]F[NMeS][dK](DOTA)-NH2; disulfide 3-11) | 100 to 300
6 | CC(=O)N[C@@H](CCC(C)C)C(=O)N[C@@H](Cc1ccc(O)cc1)C(=O)N[C@H]1CSSC[C@@H](C(=O)N[C@@H](Cc2cccc3ccccc23)C(=O)N[C@@H](Cc2ccccc2)C(=O)N2CCC[C@H]2C(=O)N[C@H](CCCCNC(=O)CC[C@H](NC(=O)CN2CCN(CC(=O)O)CCN(CC(=O)O)CCN(CC(=O)O)CC2)C(=O)O)C(N)=O)NC(=O)[C@H](Cc2ccc(O)cc2)NC(=O)[C@H](C(C)C)NC(=O)[C@H](CC(=O)O)NC(=O)[C@H](CC2CCOCC2)NC(=O)[C@H](CCCCN)NC(=O)CNC(=O)[C@H](C(C)(C)C)NC1=O [compound 274, Ac-hLeu-Y-C-Tbg-G-K-ThpA-D-V-Y-C-1Nal-F-Pro-dLys(gE-DOTA)-CONH2] (Ac-[hLeu]YC[Tle]GK[Ala(4-THP)]DVYC[1Nal]FP[dK]([γGlu-DOTA])-NH2; disulfide 3-11) | < 1
7 | CC(=O)N[C@@H](CCC(C)C)C(=O)N[C@@H](Cc1ccc(O)cc1)C(=O)N[C@H]1CSSC[C@@H](C(=O)N[C@@H](Cc2c[nH]c3ccc(Cl)cc23)C(=O)N[C@@H](Cc2ccccc2)C(=O)N[C@H](C(=O)N[C@H](CCCCNC(=O)CN2CCN(CC(=O)O)CCN(CC(=O)O)CCN(CC(=O)O)CC2)C(N)=O)[C@@H](C)O)NC(=O)[C@H](Cc2ccc(O)cc2)NC(=O)[C@H](C(C)C)NC(=O)[C@H](CC(=O)O)NC(=O)[C@H](Cc2ccc(O)cc2)NC(=O)[C@H](CCCCN)NC(=O)CNC(=O)[C@H](C(C)(C)C)NC1=O [compound 235, Ac-hLeu-Y-C-Tbg-G-K-Y-D-V-Y-C-5ClTrp-F-Thr-dLys(DOTA)-CONH2] (Ac-[hLeu]YC[Tle]GKYDVYC[Trp(5-Cl)]FT[dK](DOTA)-NH2; disulfide 3-11) | 1 to 10
8 | CC(=O)N[C@@H](CCC(C)C)C(=O)N[C@@H](Cc1ccc(O)cc1)C(=O)N[C@H]1CSSC[C@@H](C(=O)N[C@@H](Cc2c[nH]c3ccc(F)cc23)C(=O)N[C@@H](Cc2ccccc2)C(=O)N[C@H](C(N)=O)[C@@H](C)O)NC(=O)[C@H](Cc2ccc(OCCNC(=O)CN3CCN(CC(=O)O)CCN(CC(=O)O)CCN(CC(=O)O)CC3)cc2)NC(=O)[C@H](C(C)C)NC(=O)[C@H](CC(=O)O)NC(=O)[C@H](Cc2ccc(O)cc2)NC(=O)[C@H](CCCCN)NC(=O)CNC(=O)[C@H](C(C)C)NC1=O [compound 191, Ac-hLeu-Y-C-V-G-K-Y-D-V-AEF(DOTA)-C-5FW-F-Thr-CONH2] (Ac-[hLeu]YCVGKYDV[AEF](DOTA)C[Trp(5-F)]FT-NH2; disulfide 3-11) | 1 to 10

same assay, conditions: SPR KD—37° C., 4Ig B7-H3; 37° C. flow cell temperature

Row | SMILES | Kd [nM]
9 | CC(=O)N[C@@H](CCC(C)C)C(=O)N[C@@H](Cc1ccc(O)cc1)C(=O)N[C@H]1CSSC[C@@H](C(=O)N[C@@H](Cc2c(C)[nH]c3ccccc23)C(=O)N[C@@H](Cc2ccccc2)C(=O)N[C@H](C(=O)N[C@H](CCCCNC(=O)CN2CCN(CC(=O)O)CCN(CC(=O)O)CCN(CC(=O)O)CC2)C(=O)O)C(C)(C)O)NC(=O)[C@H](Cc2ccc(O)cc2)NC(=O)[C@H](C(C)C)NC(=O)[C@H](CC(=O)O)NC(=O)[C@H](CC2CCOCC2)NC(=O)[C@H](CC2CCNCC2)NC(=O)CNC(=O)[C@H](C(C)(C)C)NC1=O [compound 492, Ac-hLeu-Y-C-Tbg-G-PipAla-ThpA-D-V-Y-C-2MeW-F-hydroxyVal-dLys(DOTA)-COOH] (Ac-[hLeu]YC[Tle]G[Ala(piperidin-4-yl)][Ala(4-THP)]DVYC[Trp(2-Me)]F[Val(3-OH)][dK](DOTA)-OH; disulfide 3-11) | < 1
10 | CC(C)CC[C@H](NC(=O)CCOCCNC(=O)CC[C@H](NC(=O)CN1CCN(CC(=O)O)CCN(CC(=O)O)CCN(CC(=O)O)CC1)C(=O)O)C(=O)N[C@@H](Cc1ccc(O)cc1)C(=O)N[C@H]1CSSC[C@@H](C(=O)N[C@@H](Cc2c[nH]c3ccc(F)cc23)C(=O)N[C@@H](Cc2ccccc2)C(=O)N[C@H](C(N)=O)C(C)(C)O)NC(=O)[C@H](Cc2ccc(O)cc2)NC(=O)[C@H](C(C)C)NC(=O)[C@H](CC(=O)O)NC(=O)[C@H](CC2CCOCC2)NC(=O)[C@H](CCCCN)NC(=O)CNC(=O)[C@H](C(C)(C)C)NC1=O [compound 395, DOTA-gE-PEG1-hLeu-Y-C-Tbg-G-K-ThpA-D-V-Y-C-5FW-F-hydroxyVal-CONH2] ({DOTA-γGlu-PEG1}-[hLeu]YC[Tle]GK[Ala(4-THP)]DVYC[Trp(5-F)]F[Val(3-OH)]-NH2; disulfide 3-11) | 1 to 10
11 | CC(C)CC[C@H](NC(=O)[C@@H]1CCC(=O)N1)C(=O)N[C@@H](Cc1ccc(O)cc1)C(=O)N[C@H]1CSSC[C@@H](C(=O)N[C@@H](Cc2c[nH]c3ccc(F)cc23)C(=O)N[C@H](C(=O)N[C@H](C(=O)N[C@H](CCCCNC(=O)CN2CCN(CC(=O)O)CCN(CC(=O)O)CCN(CC(=O)O)CC2)C(=O)O)C(C)(C)O)[C@@H](C)c2ccccc2)NC(=O)[C@H](Cc2ccc(NC(N)=O)cc2)NC(=O)[C@H](C(C)C)NC(=O)[C@H](CC(=O)O)NC(=O)[C@H](CC2CCOCC2)NC(=O)[C@H](CC2CCNCC2)NC(=O)CNC(=O)[C@H](C(C)(C)C)NC1=O [compound 504, Pyroglutamate-hLeu-Y-C-Tbg-G-PipAla-ThpA-D-V-Aph(Cbm)-C-5FW-[(2S, 3S)beta-Me-Phe]-hydroxyVal-dLys(DOTA)-COOH] ([pGlu][hLeu]YC[Tle]G[Ala(piperidin-4-yl)][Ala(4-THP)]DV[Phe(4-NHCONH2)]C[Trp(5-F)][X1][Val(3-OH)][dK](DOTA)-OH; disulfide 4-12) | < 1
